This note sets out measurements from US20230390274A1 (EPIRIUM BIO INC., priority 2020, published 2023).

Structures are written as SMILES.

The target in this assay is 15-PGDH/HPGD (Homo sapiens (Human), UniProt P15428). The experiment in a line: hPGDH inhibitor screening biochemical assay. The conditions noted are these: 10 nM 15-PGDH/HPGD, 15 μM PGE2, 0.25 mM NAD; read-out: hPGDH: Average IC50. An outline of the steps: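 10 nM recombinant 15-PGDH was preincubated with compound (10-point) for 10 min at 37° C. in 50 mM Tris-HCl pH 7.5, 0.01% Tween 20. Then 15 μM PGE2 and 0.25 mM NAD+ were added for 10 min at rt. NADH fluorescence (ex/em 340/485 nm) gave % inhibition versus 1% DMSO and a four-parameter IC50.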

What is called IC50 is the concentration that gives 50% inhibition.

15-PGDH/HPGD, sequence (P15428 whole entry): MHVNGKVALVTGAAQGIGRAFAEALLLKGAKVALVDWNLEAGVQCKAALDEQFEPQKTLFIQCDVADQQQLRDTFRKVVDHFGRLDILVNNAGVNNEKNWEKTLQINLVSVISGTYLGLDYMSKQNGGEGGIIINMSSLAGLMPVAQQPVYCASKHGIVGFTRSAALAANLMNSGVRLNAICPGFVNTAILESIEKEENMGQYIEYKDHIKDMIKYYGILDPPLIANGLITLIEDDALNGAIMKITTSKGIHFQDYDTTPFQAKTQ

On to `O=C(c1cnc2c(ccn2-c2cncc(-c3nnn[nH]3)c2)c1)N1CCC(F)(F)CC1` [A-251, (1-(5-(1H-tetrazol-5-yl)pyridin-3-yl)-1H-pyrrolo[2,3-b]pyridin-5-yl)(4,4-difluoropiperidin-1-yl)methanone], for which the IC50 is under 0.1 µM.
Next, `O=C(c1cnc2c(ccn2-c2cncc(-c3noc(=O)[nH]3)c2)c1)N1CCC(F)(F)CC1` [A-252, 3-(5-(5-(4,4-difluoropiperidine-1-carbonyl)-1H-pyrrolo[2,3-b]pyridin-1-yl)pyridin-3-yl)-1,2,4-oxadiazol-5(4H)-one]: under 0.1 µM; `O=C(c1cnc2c(ccn2-c2ccc(-c3ncn[nH]3)nc2)c1)N1CCC(F)(F)CC1` [A-253]: under 0.1 µM; `O=C(c1cnc2c(ccn2-c2ccc(-c3noc(=O)[nH]3)nc2)c1)N1CCC(F)(F)CC1` [A-254, 3-(5-(5-(4,4-difluoropiperidine-1-carbonyl)-1H-pyrrolo[2,3-b]pyridin-1-yl)pyridin-2-yl)-1,2,4-oxadiazol-5(4H)-one]: under 0.1 µM.
`CC1(C)NC(=O)N(c2ccc(-n3ccc4cc(C(=O)N5CCC(F)(F)CC5)cnc43)cn2)C1=O` [A-255]: the IC50 is under 0.1 µM.
Next, `O=C(Nc1cncc(-n2ccc3cc(C(=O)N4CCC(F)(F)CC4)cnc32)c1)c1ccno1` [A-256]: under 0.1 µM; `O=C(Nc1ccno1)c1cncc(-n2ccc3cc(C(=O)N4CCC(F)(F)CC4)cnc32)c1` [A-257, 5-(5-(4,4-difluoropiperidine-1-carbonyl)-1H-pyrrolo[2,3-b]pyridin-1-yl)-N-(isoxazol-5-yl)nicotinamide]: under 0.1 µM; `O=C(Nc1ccno1)c1ccc(-n2ccc3cc(C(=O)N4CCC(F)(F)CC4)cnc32)cn1` [A-258]: under 0.1 µM.
For the molecule `N#Cc1ccc(-n2ccc3nc(C(=O)N4CCC(F)CC4)ccc32)cc1` [A-259, 4-(5-(4-fluoropiperidine-1-carbonyl)-1H-pyrrolo[3,2-b]pyridin-1-yl)benzonitrile], the IC50 is at least 1 µM.
Turning to `N#Cc1ccc(-n2ccc3cc(C(=O)N4CCC(F)CC4)ncc32)cc1` [A-260, 4-(5-(4-fluoropiperidine-1-carbonyl)-1H-pyrrolo[2,3-c]pyridin-1-yl)benzonitrile], the IC50 was at least 1 µM.
With `O=C(NCCO)c1cccc(-n2ccc3cc(C(=O)N4CCC(F)(F)CC4)cnc32)c1` [A-263, 3-(5-(4,4-difluoropiperidine-1-carbonyl)-1H-pyrrolo[2,3-b]pyridin-1-yl)-N-(2-hydroxyethyl)benzamide] the figure was under 0.1 µM.
For the molecule `O=C(O)c1ccc(-n2ccc3cc(C(=O)N4CCC(F)(F)CC4)cnc32)nc1` [A-264], the IC50 was under 0.1 µM.
For the molecule `Cc1nc(-c2cncc(-n3ccc4cc(C(=O)N5CCC(F)(F)CC5)cnc43)c2)no1` [A-265, (4,4-difluoropiperidin-1-yl)(1-(5-(5-methyl-1,2,4-oxadiazol-3-yl)pyridin-3-yl)-1H-pyrrolo[2,3-b]pyridin-5-yl)methanone], the IC50 is under 0.1 µM.
For the molecule `O=C(c1cnc2c(ccn2-c2cncc(N3CCOC3=O)c2)c1)N1CCC(F)(F)CC1` [A-267], the IC50 was under 0.1 µM.
Regarding `CCNC(=O)c1ccc(-n2ccc3cc(C(=O)N4CCC(F)(F)CC4)cnc32)nc1` [A-268, 6-(5-(4,4-difluoropiperidine-1-carbonyl)-1H-pyrrolo[2,3-b]pyridin-1-yl)-N-ethylnicotinamide], the concentration for half-maximal inhibition (IC50) was under 0.1 µM.
`NC[C@@H]1CN(c2ccc(-n3ccc4cc(C(=O)N5CCC(F)(F)CC5)cnc43)cn2)C(=O)O1` [A-269]: the IC50 was under 0.1 µM.
For `NC[C@@H]1CN(c2cncc(-n3ccc4cc(C(=O)N5CCC(F)(F)CC5)cnc43)c2)C(=O)O1` [A-270], the IC50 is under 0.1 µM.
Take `CS(=O)(=O)NCCNC(=O)c1cccc(-n2ccc3cc(C(=O)N4CCC(F)(F)CC4)cnc32)c1` [A-271, 3-(5-(4,4-difluoropiperidine-1-carbonyl)-1H-pyrrolo[2,3-b]pyridin-1-yl)-N-(2-(methylsulfonamido)ethyl)benzamide]: the IC50 is under 0.1 µM.
On to `O=C(NC1CCS(=O)(=O)CC1)c1cc(Cl)cc(-n2ccc3cc(C(=O)N4CCC(F)(F)CC4)cnc32)c1` [A-272], for which the IC50 was under 0.1 µM.
Turning to `NC(=O)c1cncc(-n2cc(Cl)c3cc(C(=O)N4CCC(F)(F)CC4)cnc32)c1` [A-273], the IC50 is under 0.1 µM.
In the case of `O=C(c1cnc2c(ccn2-c2cncc(NS(=O)(=O)C3CC3)c2)c1)N1CCC(F)(F)CC1` [A-274, N-(5-(5-(4,4-difluoropiperidine-1-carbonyl)-1H-pyrrolo[2,3-b]pyridin-1-yl)pyridin-3-yl)cyclopropanesulfonamide], the IC50 is under 0.1 µM.
Next, `CCOC(=O)Nc1cncc(-n2ccc3cc(C(=O)N4CCC(F)(F)CC4)cnc32)c1` [A-275, ethyl (5-(5-(4,4-difluoropiperidine-1-carbonyl)-1H-pyrrolo[2,3-b]pyridin-1-yl)pyridin-3-yl)carbamate]: under 0.1 µM; `NC(=O)[C@@H]1CCCN1C(=O)c1cccc(-n2ccc3cc(C(=O)N4CCC(F)(F)CC4)cnc32)c1` [A-276, (S)-1-(3-(5-(4,4-difluoropiperidine-1-carbonyl)-1H-pyrrolo[2,3-b]pyridin-1-yl)benzoyl)pyrrolidine-2-carboxamide]: under 0.1 µM.
With `CC(C)(C(N)=O)c1cncc(-n2ccc3cc(C(=O)N4CCC(F)(F)CC4)cnc32)c1` [A-277, 2-(5-(5-(4,4-difluoropiperidine-1-carbonyl)-1H-pyrrolo[2,3-b]pyridin-1-yl)pyridin-3-yl)-2-methylpropanamide], the IC50 is under 0.1 µM.
Regarding `NS(=O)(=O)c1cccc(-n2ccc3cc(C(=O)N4CCC(F)(F)CC4)cnc32)c1` [A-279], the IC50 was under 0.1 µM.
Regarding `NS(=O)(=O)c1ccc(-n2ccc3cc(C(=O)N4CCC(F)(F)CC4)cnc32)cc1` [A-280], the IC50 was under 0.1 µM.
Regarding `O=C(c1cnc2c(ccn2-c2cccc(C(=O)N3CCS(=O)(=O)C3)c2)c1)N1CCC(F)(F)CC1` [A-281, (4,4-difluoropiperidin-1-yl)(1-(3-(1,1-dioxidothiazolidine-3-carbonyl)phenyl)-1H-pyrrolo[2,3-b]pyridin-5-yl)methanone], the IC50 was under 0.1 µM.
For `O=C(Nc1cc(C2CC2)[nH]n1)c1cccc(-n2ccc3cc(C(=O)N4CCC(F)(F)CC4)cnc32)c1` [A-282, N-(5-cyclopropyl-1H-pyrazol-3-yl)-3-(5-(4,4-difluoropiperidine-1-carbonyl)-1H-pyrrolo[2,3-b]pyridin-1-yl)benzamide], the IC50 is under 0.1 µM.
Consider `O=C(Nc1ccn(C2CC2)n1)c1cccc(-n2ccc3cc(C(=O)N4CCC(F)(F)CC4)cnc32)c1` [A-283, N-(1-cyclopropyl-1H-pyrazol-3-yl)-3-(5-(4,4-difluoropiperidine-1-carbonyl)-1H-pyrrolo[2,3-b]pyridin-1-yl)benzamide], for which the IC50 is under 0.1 µM.
`O=C(Nc1ccn(C2CC2)n1)c1cncc(-n2ccc3cc(C(=O)N4CCC(F)(F)CC4)cnc32)c1` [A-284, N-(1-cyclopropyl-1H-pyrazol-3-yl)-5-(5-(4,4-difluoropiperidine-1-carbonyl)-1H-pyrrolo[2,3-b]pyridin-1-yl)nicotinamide]: the IC50 was under 0.1 µM.
As for `O=C(Nc1cc(C2CC2)[nH]n1)c1cncc(-n2ccc3cc(C(=O)N4CCC(F)(F)CC4)cnc32)c1` [A-285, N-(5-cyclopropyl-1H-pyrazol-3-yl)-5-(5-(4,4-difluoropiperidine-1-carbonyl)-1H-pyrrolo[2,3-b]pyridin-1-yl)nicotinamide], the IC50 is under 0.1 µM.
Turning to `N#Cc1cc(-n2ccc3cc(C(=O)N4CCC(F)(F)CC4)cnc32)cnc1O` [A-286], the IC50 is under 0.1 µM.
As to `O=C(O)c1cccc(-n2ccc3cc(C(=O)N4CCC(F)(F)CC4)cnc32)c1` [A-287, 3-(5-(4,4-difluoropiperidine-1-carbonyl)-1H-pyrrolo[2,3-b]pyridin-1-yl)benzoic acid], the IC50 is under 0.1 µM.
With `O=C(c1cnc2c(ccn2-c2cc(Cl)cc(C(=O)N3CCS(=O)(=O)CC3)c2)c1)N1CCC(F)(F)CC1` [A-288], the IC50 is under 0.1 µM.
Turning to `CC(C)(C#N)c1cncc(-n2ccc3cc(C(=O)N4CCC(F)(F)CC4)cnc32)c1` [A-289, 2-(5-(5-(4,4-difluoropiperidine-1-carbonyl)-1H-pyrrolo[2,3-b]pyridin-1-yl)pyridin-3-yl)-2-methylpropanenitrile], the IC50 is under 0.1 µM.
Regarding `O=C(c1cnc2c(ccn2-c2ccc(-c3nn[nH]n3)cc2)c1)N1CCC(F)(F)CC1` [A-290, (1-(4-(2H-tetrazol-5-yl)phenyl)-1H-pyrrolo[2,3-b]pyridin-5-yl)(4,4-difluoropiperidin-1-yl)methanone], the IC50 was under 0.1 µM.
Next, `O=C(c1cnc2c(ccn2-c2cccc(-c3nn[nH]n3)c2)c1)N1CCC(F)(F)CC1` [A-291, (1-(3-(2H-tetrazol-5-yl)phenyl)-1H-pyrrolo[2,3-b]pyridin-5-yl)(4,4-difluoropiperidin-1-yl)methanone]: under 0.1 µM; `O=C(c1cnc2c(ccn2-c2cncc(-c3nc[nH]n3)c2)c1)N1CCC(F)(F)CC1` [A-292, (1-(5-(1H-1,2,4-triazol-3-yl)pyridin-3-yl)-1H-pyrrolo[2,3-b]pyridin-5-yl)(4,4-difluoropiperidin-1-yl)methanone]: under 0.1 µM; `CC(C)(O)CNC(=O)c1cc(Cl)cc(-n2ccc3cc(C(=O)N4CCC(F)(F)CC4)cnc32)c1` [A-293]: under 0.1 µM.
Consider `O=C(c1cnc2c(ccn2-c2cccc(C(=O)N3CC[S+]([O-])C3)c2)c1)N1CCC(F)(F)CC1` (centres unmarked) [A-294, (4,4-difluoropiperidin-1-yl)(1-(3-(1-oxidothiazolidine-3-carbonyl)phenyl)-1H-pyrrolo[2,3-b]pyridin-5-yl)methanone], for which the IC50 was under 0.1 µM.
Turning to `O=C(c1cnc2c(c1)c(Cl)cn2-c1cnccn1)N1CCC(F)CC1` [A-295], the IC50 was under 0.1 µM.
